Activity calls are given as the source filed them.
What was measured:
[1] = target: T1, Fructose-bisphosphate aldolase (Mycobacterium tuberculosis, UniProt P9WQA3); assay: Fluorescence-based biochemical high throughput dose response assay for inhibitors of the fructose-bisphosphate aldolase (FBA) of M. tuberculosis.; type: functional
T1 sequence (P9WQA3 whole entry): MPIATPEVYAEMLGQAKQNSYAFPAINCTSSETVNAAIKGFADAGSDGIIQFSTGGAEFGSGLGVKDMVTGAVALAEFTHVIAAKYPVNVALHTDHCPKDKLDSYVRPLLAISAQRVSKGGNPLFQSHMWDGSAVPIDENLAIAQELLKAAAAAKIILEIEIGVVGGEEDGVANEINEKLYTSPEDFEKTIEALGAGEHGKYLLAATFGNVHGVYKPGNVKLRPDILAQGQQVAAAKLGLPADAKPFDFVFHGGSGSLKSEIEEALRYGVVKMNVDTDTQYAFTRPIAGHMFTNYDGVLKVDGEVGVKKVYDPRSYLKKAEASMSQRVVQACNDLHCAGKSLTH

[2] = target: T2, DNA repair and recombination protein RAD54-like (Homo sapiens, UniProt Q92698); assay: RAD54 Holliday junction migration blockers – biochemical, fluorescence, cherry-picked samples, dose series, confirmation (AID 651657); type: functional
T2 sequence (Q92698 whole entry): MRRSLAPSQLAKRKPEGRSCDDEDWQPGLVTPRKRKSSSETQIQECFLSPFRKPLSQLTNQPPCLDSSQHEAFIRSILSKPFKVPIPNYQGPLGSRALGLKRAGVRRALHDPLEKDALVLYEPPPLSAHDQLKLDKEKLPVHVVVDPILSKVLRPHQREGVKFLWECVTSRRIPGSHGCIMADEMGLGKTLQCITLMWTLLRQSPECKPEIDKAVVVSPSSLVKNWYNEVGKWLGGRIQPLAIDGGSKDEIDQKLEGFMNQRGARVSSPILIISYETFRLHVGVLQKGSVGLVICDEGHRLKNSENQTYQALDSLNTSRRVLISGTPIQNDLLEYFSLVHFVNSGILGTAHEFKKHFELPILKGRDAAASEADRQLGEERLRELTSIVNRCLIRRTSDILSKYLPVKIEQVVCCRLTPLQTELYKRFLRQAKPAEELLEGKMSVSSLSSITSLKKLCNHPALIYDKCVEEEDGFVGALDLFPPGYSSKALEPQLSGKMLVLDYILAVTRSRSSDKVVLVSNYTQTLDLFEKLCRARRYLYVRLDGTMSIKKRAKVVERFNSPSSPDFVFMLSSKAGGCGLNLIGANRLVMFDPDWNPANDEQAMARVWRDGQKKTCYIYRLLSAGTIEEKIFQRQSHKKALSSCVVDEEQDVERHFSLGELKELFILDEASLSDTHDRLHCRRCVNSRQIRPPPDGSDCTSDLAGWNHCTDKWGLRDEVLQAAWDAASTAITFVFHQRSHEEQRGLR

[3] = target: T3, DNA repair protein RAD52 homolog (Homo sapiens, UniProt P43351); type: functional, biochemical
T3 sequence (P43351 whole entry): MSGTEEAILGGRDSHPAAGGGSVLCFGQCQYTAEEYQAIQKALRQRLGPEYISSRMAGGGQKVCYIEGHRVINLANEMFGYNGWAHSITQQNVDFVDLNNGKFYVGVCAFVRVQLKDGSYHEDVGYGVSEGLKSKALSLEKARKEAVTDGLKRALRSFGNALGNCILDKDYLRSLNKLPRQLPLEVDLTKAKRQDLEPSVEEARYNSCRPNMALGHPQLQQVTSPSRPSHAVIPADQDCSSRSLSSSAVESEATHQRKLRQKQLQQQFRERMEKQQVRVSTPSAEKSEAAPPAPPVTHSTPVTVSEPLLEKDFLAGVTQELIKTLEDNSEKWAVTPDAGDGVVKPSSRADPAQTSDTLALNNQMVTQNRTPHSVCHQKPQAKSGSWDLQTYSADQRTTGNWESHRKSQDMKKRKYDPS

[4] = intracellular Trypanosoma cruzi inhibitors in host cells – cell-based, plate reader, cherry-pick samples, set 3, dose response (AID 651818); type: functional;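 also: compounds incubated with infected cells for about four days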
[5] = general mammalian cell viability loss – activator set, cherry-pick, cytotoxicity control for miR-122 modulator project, dose response (AID 720690); type: functional, cell-based;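 also: HEK293T human cells scored for general mammalian cytotoxicity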
[6] = general mammalian cell viability loss – inhibitor set, cherry-pick, set 2, cytotoxicity control for miR-122 modulator project, dose response (AID 720697); type: functional, cell-based
[7] = target: T4, Corticotropin-releasing factor receptor 2/Corticotropin-releasing factor-binding protein (Homo sapiens, UniProt P24387+Q13324); assay: activators of CRF receptor 2 with binding protein – uHTS hits, confirmation (AID 602473); type: functional; conditions: read-out: EC50_Mean
T4 sequence (Q13324 whole entry): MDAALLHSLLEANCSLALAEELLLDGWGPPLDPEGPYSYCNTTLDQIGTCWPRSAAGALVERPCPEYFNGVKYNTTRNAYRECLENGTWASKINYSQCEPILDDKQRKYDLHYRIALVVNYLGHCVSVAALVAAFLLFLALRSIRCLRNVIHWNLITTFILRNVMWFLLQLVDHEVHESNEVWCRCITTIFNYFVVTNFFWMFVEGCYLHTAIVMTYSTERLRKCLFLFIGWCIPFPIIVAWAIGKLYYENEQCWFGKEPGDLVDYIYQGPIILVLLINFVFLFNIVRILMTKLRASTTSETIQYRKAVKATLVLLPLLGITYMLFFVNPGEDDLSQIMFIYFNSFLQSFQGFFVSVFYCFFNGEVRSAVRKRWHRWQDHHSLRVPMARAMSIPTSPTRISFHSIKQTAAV
T4 sequence (P24387 whole entry): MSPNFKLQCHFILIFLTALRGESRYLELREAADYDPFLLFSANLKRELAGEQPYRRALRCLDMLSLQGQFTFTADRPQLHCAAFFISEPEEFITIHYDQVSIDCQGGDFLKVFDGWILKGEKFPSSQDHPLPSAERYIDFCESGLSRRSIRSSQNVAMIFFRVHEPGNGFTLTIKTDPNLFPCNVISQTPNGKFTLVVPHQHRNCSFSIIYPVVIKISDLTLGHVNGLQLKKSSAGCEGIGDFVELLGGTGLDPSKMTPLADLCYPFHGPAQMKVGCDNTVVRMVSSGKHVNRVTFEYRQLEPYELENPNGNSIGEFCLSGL

[8] = HGIII-sPLA2 enzyme inhibition potency – biochemical, QFRET, IC50, dose response (AID 743457);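 also: green fluorescence rise as the enzyme cleaves BODIPY PC-A2 in liposomes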
[9] = target: T5, Long-chain-fatty-acid--AMP ligase FadD28 (Mycobacterium tuberculosis, UniProt P9WQ59); assay: Fluorescence polarization aasay to screen for inhibitors that compete for the binding of FadD28 to a bisubstrate Measured in Biochemical System Using Plate Reader - 2147-01_Inhibitor_Dose_CherryPick_Activity.; type: functional, Mycobacterium tuberculosis H37Rv
T5 sequence (P9WQ59 whole entry): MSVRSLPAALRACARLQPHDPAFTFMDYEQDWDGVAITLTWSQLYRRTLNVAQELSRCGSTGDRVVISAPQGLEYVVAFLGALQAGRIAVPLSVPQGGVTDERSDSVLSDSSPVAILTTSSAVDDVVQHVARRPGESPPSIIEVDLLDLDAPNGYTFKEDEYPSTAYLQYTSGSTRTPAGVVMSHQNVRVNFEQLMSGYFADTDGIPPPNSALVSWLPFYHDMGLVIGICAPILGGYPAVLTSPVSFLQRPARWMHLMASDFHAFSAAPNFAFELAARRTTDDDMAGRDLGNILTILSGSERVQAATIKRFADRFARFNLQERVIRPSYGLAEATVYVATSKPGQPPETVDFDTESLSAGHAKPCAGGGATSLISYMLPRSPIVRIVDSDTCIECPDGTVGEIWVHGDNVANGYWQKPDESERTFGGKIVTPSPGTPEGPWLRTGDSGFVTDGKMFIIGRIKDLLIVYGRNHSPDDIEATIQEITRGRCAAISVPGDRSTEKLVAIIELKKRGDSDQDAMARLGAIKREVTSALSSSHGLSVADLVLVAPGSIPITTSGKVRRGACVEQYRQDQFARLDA

[10] = luciferase reporter signal suppression in cells – H4 neuroglioma cells, luminescence, dose response (AID 1990); type: functional, cell-based
[11] = Luminescence Cell-Based Dose Response HTS to Identify Inhibitors of 5'UTR Stem-Loop Driven Prion Protein mRNA Translation in H4 Neuroglioblastoma Cells. [Related pubchem assays: 1827 (Project Summary), 1813 (Primary HTS)]; type: functional
INS1 = assay: INS-1E survival protection against cytokine death – cell-based, luminescence, retest, dose response (AID 449756); type: functional; conditions: ins1;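 also: cell death triggered by IL-1 beta plus TNF-alpha plus IFN-gamma mixture; protective hits raise ATP signal compared with cytokine alone wells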
[12] = cAMP pathway inhibition in counterscreen cell line – TR-FRET cAMP detection, counter-screen for MC4R biased antagonist project, dose response (AID 602305); type: functional, cell-based;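 also: U2OS cells stimulated with forskolin near its EC80 as the cAMP inducer; potency is for inhibition of forskolin-stimulated cAMP signaling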
[13] = system: Streptococcus sp. 'group A'; assay: Streptococcus pyogenes SK(-)GAS viability under kanamycin – luminescence, BacTiterGlo, confirmation, counter-screen for streptokinase expression inhibitor project, dose response (AID 1900); type: functional, organism-based
[14] = NIH3T3 cell viability loss – ATP luminescence, mouse fibroblasts, counter-screen, dose response (AID 2010); type: functional, cell-based;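 also: cells exposed to compound for about 90 hours before reading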
[15] = viability loss in HeLa cells – cytotoxicity control for MgcRacGAP inhibitor project, dose response (AID 624300); type: functional
[16] = Trypanosoma cruzi growth suppression in host cells – NIH3T3 host cells, beta-gal luminescence, confirmation (AID 2044); type: functional, cell-based;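 also: intracellular parasites grown in NIH/3T3 mouse fibroblasts as host cells; luminescent beta-galactosidase reporter signal from transgenic T. cruzi replicating inside host cells; inhibitors lower the luminescence signal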
[17] = alpha-synuclein stem-loop luciferase translation blockers – H4 neuroglioma cells, luminescence, confirmation (AID 1988); type: functional, cell-based
Streptococcus = assay: GAS UMAA2166 growth inhibition – luminescence, BacTiterGlo, counter-screen for streptokinase expression inhibitor project, dose response (AID 1915); type: functional, organism-based;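 also: potency for reduction of bacterial viability or growth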
[18] = OVCAR8 cell viability loss – plate reader, dry powder samples, PAX8 project, dose response (AID 743197); type: functional, cell-based; conditions: OVCAR-8
Paired box protein Pax-8 = Paired box protein Pax-8 (Homo sapiens, UniProt Q06710); assay: PAX8 transcriptional activity inhibition in RMG-I – RMG-I cells, luciferase, cherry-pick, dose response (AID 687027); type: functional, cell-based;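 also: luciferase reporter driven by Pax8 target thyroperoxidase promoter measured by SteadyGlo luminescence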
Paired box protein Pax-8, sequence (Q06710 whole entry): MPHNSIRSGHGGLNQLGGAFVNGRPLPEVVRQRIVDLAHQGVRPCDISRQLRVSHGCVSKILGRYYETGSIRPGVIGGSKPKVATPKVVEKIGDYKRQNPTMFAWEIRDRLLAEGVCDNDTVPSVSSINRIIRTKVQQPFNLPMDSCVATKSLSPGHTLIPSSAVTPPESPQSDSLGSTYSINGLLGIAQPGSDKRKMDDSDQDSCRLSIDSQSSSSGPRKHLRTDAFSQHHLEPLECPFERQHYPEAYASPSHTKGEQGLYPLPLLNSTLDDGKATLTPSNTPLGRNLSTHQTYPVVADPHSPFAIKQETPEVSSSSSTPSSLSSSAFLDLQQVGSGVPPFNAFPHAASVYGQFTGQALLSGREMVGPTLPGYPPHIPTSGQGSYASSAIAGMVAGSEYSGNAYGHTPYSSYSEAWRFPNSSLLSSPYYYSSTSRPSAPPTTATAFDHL

[19] = OVCAR-3 cell viability loss – plate reader, dry powder samples, PAX8 inhibitor project, dose response (AID 743044); type: functional, cell-based
[20] = target: T6, Carboxy-terminal domain RNA polymerase II polypeptide A small phosphatase 1 (Homo sapiens, UniProt Q9GZU7); assay: CTDSP1 inhibitors, concentration-response, biochemical, absorbance readout, ultra-high-throughput screen actives (AID 540297); type: functional
T6 sequence (Q9GZU7 whole entry): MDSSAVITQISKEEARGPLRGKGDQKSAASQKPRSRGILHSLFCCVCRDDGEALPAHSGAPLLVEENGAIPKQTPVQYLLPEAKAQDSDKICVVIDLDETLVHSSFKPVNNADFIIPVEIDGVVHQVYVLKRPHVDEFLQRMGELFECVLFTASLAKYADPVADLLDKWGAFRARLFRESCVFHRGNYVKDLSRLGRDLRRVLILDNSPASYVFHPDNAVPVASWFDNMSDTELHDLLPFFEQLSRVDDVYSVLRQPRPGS

Genome polyprotein = Genome polyprotein (dengue virus type 2, UniProt P29990); assay: flavivirus cap methylation enzyme inhibition – biochemical, confirmation dose response, primary screen (AID 588689); type: functional
Genome polyprotein, sequence (P29990 2492-3391 limits assumed): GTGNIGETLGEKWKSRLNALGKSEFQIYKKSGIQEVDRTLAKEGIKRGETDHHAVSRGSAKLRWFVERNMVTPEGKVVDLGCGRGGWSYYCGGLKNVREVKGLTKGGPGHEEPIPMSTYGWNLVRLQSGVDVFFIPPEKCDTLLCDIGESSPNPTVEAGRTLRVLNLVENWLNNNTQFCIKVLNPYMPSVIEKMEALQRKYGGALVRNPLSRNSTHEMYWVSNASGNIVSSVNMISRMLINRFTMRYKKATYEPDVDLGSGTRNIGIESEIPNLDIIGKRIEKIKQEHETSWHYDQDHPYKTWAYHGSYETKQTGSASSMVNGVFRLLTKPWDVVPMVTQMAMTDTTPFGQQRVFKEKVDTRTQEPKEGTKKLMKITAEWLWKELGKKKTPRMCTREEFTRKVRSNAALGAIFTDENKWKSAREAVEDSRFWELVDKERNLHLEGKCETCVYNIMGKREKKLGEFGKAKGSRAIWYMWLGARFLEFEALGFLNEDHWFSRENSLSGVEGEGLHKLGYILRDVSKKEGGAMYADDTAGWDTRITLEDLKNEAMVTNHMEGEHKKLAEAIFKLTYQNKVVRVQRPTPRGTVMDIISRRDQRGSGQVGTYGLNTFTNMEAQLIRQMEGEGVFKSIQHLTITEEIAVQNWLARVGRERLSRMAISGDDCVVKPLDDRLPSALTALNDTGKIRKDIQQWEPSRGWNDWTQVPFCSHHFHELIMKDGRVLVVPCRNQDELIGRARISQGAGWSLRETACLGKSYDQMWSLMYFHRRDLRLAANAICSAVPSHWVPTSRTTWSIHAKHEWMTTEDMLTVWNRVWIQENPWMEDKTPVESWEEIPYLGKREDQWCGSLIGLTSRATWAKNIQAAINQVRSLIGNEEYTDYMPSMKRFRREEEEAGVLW

[21] = IGROV1 cell killing – plate reader, dry powder samples, PAX8 inhibitor project, dose response (AID 743043); type: functional, cell-based; conditions: IGROV-1

Cn1c(-c2cccs2)nc2ccccc21
IC50 [1]: 1.48 µM (active)

COc1ccc(-c2cc(NC=O)c3ncc(-c4cccc(C(=O)NCCN(C)C)c4)n3c2)cc1
AC50 [2]: 9.93 µM (active) | AC50 [3]: 2.81 µM (active)

C[C@@H]1CN([C@@H](C)CO)C(=O)c2cc(NC(=O)Nc3ccc(C(F)(F)F)cc3)ccc2O[C@@H]1CN(C)CC1CCCCC1
AC50 [4]: 5.59 µM (active) | AC50 [5]: 19.1 µM (active) | AC50 [6]: 4.35 µM (active)

CC(C)CC(=O)NC(=S)NNC(=O)c1cccc([N+](=O)[O-])c1
EC50 [7]: > 53 µM (inactive) | IC50 [8]: > 122 µM (inactive)

Cc1nnsc1-c1nc2ccccc2[nH]1
IC50 [1]: 1.4 µM (active)

CC1(C)Oc2cc3oc(-c4cc(O)cc(O)c4)cc3cc2CC1O (stereo not drawn) [(+/-)-MORACIN P]
AC50 [9]: 65.8 µM (active) | EC50 [10]: 4.04 µM (inconclusive) | EC50 [11]: 11.1 µM (active)

CC1CCN(CCCNC(=O)c2cc3c(=O)n(C)c4ccccc4c3n2C)CC1
AC50 [2]: 27.8 µM (active)

COc1ccc(Cl)c2sc(N(CCN(C)C)C(=O)C3=COCCO3)nc12
AC50 [2]: 38 µM (active)

N=C(NCCCCCCNC(=N)NC(=N)Nc1ccc(Cl)cc1)NC(=N)Nc1ccc(Cl)cc1
AC50 (INS1): 4.27 µM (active) | IC50 [12]: 61.2 µM (inactive) | EC50 [13]: 0.517 µM (active) | EC50 [14]: 7.82 µM (active) | CC50 [15]: 37.9 µM (active) | EC50 [16]: 0.332 µM (active) | EC50 [17]: 9.88 µM (active) | EC50 [10]: 8.64 µM (active) | EC50 (Streptococcus): 2.09 µM (active) | EC50 [11]: 18.2 µM (active)

Cc1nc2ccccc2c2oc(C(=O)NCCN3CCCCC3C)cc12 (stereo unspecified)
AC50 [2]: 35.2 µM (active)

CC(C)(CNC(=O)c1cc(-c2ccc(Cl)s2)nc2ccccc12)N1CCOCC1
IC50 [1]: 1.59 µM (active)

NS(=O)(=O)c1ccc(CNC(=O)C(Cc2ccccc2)NS(=O)(=O)c2ccccc2F)cc1 (stereo unspecified)
AC50 [9]: 39.3 µM (active)

Cc1noc(C)c1S(=O)(=O)Nc1ccc2c(c1)C(=O)N([C@H](C)CO)C[C@@H](C)[C@H](CN(C)C(=O)Nc1ccc(C(F)(F)F)cc1)OCCCC[C@@H](C)O2
AC50 [18]: 38.2 µM (active) | AC50 (Paired box protein Pax-8): 7.41 µM (active) | AC50 [19]: 26.7 µM (active)

O=C(O)CN1C(=O)/C(=C2\C(=O)N(Cc3ccccc3Cl)c3ccccc32)SC1=S
IC50 [20]: 2.61 µM (active) | IC50 (Genome polyprotein): 28.2 µM (active)

C[C@H](O)C#Cc1cnc2c(c1)C(=O)N([C@H](C)CO)C[C@@H](C)[C@@H](CN(C)Cc1ccc(-c3ccccc3)cc1)O2
AC50 [21]: 25.6 µM (active) | AC50 (Paired box protein Pax-8): 1.66 µM (active)

CCCCCC1C(=O)N2C=C(c3ccccc3)c3ccccc3N2C1=O (stereo unspecified) [CINTAZONE]
AC50 [9]: 67.3 µM (active)

CCCCN=C(S)N(CCN(CC)CC)Cc1cc2cc3c(cc2nc1O)OCO3
IC50 [1]: 2.44 µM (active)
